The values below are quoted from earlier work in EP0893486B1, “Acrylic compositions for consolidation of soils and concrete in general” (Draco Italiana S.p.A., priority 1997, dated 1999).

The conditions of this data set: classification of the single monomer.
Turning to `C=C(C)C(=O)OCCO` [2-hydroxyethylmethacrylate], the classified as result is “irritants”.

For `C=CC(=O)OCC(CC)(COCC(CC)(COC(=O)C=C)COC(=O)C=C)COC(=O)C=C` [Ditrimetbylolpropanetetraacrylate], the classified as entry was “irritants”.

Take `C=C(C)C(=O)OCC(CC)(COC(=O)C(=C)C)COC(=O)C(=C)C` [trimethylolpropanetrimethacrylate]: the classified as entry was “irritants”.

As for polyethyleneglycol-400-diacrylate, the classified as entry was “irritants”.

With polyethyleneglycol-600-dimethacrylate, the classified as result was “irritants”.

In the case of polyethyleneglycolmonoacrylate, the classified as entry was “irritants”.

In the case of “trimethylolpropanetriacrylate-ethoxylate”, the classified as entry is recorded as “irritants”.
